Laboratory results published in PubChem BioAssay AID504828 (Johns Hopkins Ion Channel Center, 2011).

Target: Inward rectifier potassium channel 2 (Mus musculus) (UniProt P35561)
Assay: inhibition of mouse Kir2.1 inward rectifier channel – manual whole-cell patch clamp, extended SAR, set 1, orthogonal assay, SAR follow-up (AID 504828)
Conditions: Kir2.1-expressing cells, -100 mV;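 active means compounds lowering Kir2.1 channel current, measured at -100 mV, at one or more tested doses; inactive means the rest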

Sequence of Inward rectifier potassium channel 2 (Mus musculus) (P35561 whole entry, looked up): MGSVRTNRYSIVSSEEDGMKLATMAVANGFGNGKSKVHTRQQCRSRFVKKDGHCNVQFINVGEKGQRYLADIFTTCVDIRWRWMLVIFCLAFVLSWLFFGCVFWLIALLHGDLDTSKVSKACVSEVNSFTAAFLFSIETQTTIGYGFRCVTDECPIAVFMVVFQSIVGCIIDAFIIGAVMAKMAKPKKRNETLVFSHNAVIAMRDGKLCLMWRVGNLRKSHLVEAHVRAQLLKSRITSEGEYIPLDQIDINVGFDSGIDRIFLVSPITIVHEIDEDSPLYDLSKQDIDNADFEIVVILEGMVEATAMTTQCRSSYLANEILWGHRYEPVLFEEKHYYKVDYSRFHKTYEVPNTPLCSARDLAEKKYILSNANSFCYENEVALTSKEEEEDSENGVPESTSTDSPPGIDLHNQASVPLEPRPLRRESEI

IC50, active:
Cc1ccc(C)c(OCCCNCc2ccccc2)c1 5.94 µM
CC(O)CNCCCOc1cccc(Oc2ccccc2)c1 (stereo unspecified) 4.12 µM
Cc1noc(C)c1COC(=O)CCN1c2ccccc2Sc2ccccc21 3.21 µM
O=S(=O)(c1ccc(F)cc1)N1CCCc2ccccc21 11.1 µM
CC(NS(=O)(=O)c1ccc(Br)cc1)c1ccccc1 (stereo unspecified) 8.82 µM
Cc1ccc2nc(NCc3ccccc3)[nH]c2c1 16.6 µM
